Results taken from PubChem BioAssay AID248 (DTP/NCI, 2004).
“And” between values parts separate entries of the source, which are not always exact repeats. Equal entries are not always repeated. Inconclusive results and toxic doses are left out.

Test system: L1210 leukemia ip in BDF1 mice, survival T/C
Assay: NCI In Vivo Anticancer Drug Screen. Data for tumor model L1210 Leukemia (intraperitoneal) in B6D2F1 (BDF1) mice
Conditions: endpoint: mean survival time, higher = longer survival
Summary of the method: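 Transplanted-tumor mice were given test agent; controls received vehicle only. Survival readings from the two groups were divided (treated over control).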

[1] = dose: 100.0 mg/kg/injection, schedule: Q04DX003 (ip), vehicle: Klucel (hydroxypropylcellulose) (HPC)
[2] = dose: 200.0 mg/kg/injection, schedule: Q04DX003 (ip), vehicle: Klucel (hydroxypropylcellulose) (HPC)
[3] = dose: 400.0 mg/kg/injection, schedule: Q04DX003 (ip), vehicle: Klucel (hydroxypropylcellulose) (HPC)
[4] = dose: 12.5 mg/kg/injection, schedule: Q01DX009 (ip), vehicle: Klucel (hydroxypropylcellulose) (HPC)
[5] = dose: 25.0 mg/kg/injection, schedule: Q01DX009 (ip), vehicle: Klucel (hydroxypropylcellulose) (HPC)
[6] = dose: 100.0 mg/kg/injection, schedule: Q01DX009 (ip), vehicle: saline with Tween-80
[7] = dose: 10.0 mg/kg/injection, schedule: Q01DX001 (ip), vehicle: saline
[8] = dose: 100.0 mg/kg/injection, schedule: Q01DX001 (ip), vehicle: other
[9] = dose: 200.0 mg/kg/injection, schedule: Q01DX001 (ip), vehicle: other
[10] = dose: 50.0 mg/kg/injection, schedule: Q04DX003 (ip), vehicle: Klucel (hydroxypropylcellulose) (HPC)

`O=C(NCCCl)Nc1ccc(O)cc1` was tested, and the T/C (dose: 100.0 mg/kg/injection, schedule: Q01DX009 (ip), vehicle: saline) was 101 % of control, the T/C [1] was 98 % of control and the T/C (dose: 200.0 mg/kg/injection, schedule: Q01DX009 (ip), vehicle: saline) was 105 % of control. The T/C [2] was 94 % of control, the T/C (dose: 400.0 mg/kg/injection, schedule: Q01DX009 (ip), vehicle: saline) was 90 % of control and the T/C [3] was 100 % of control.
`CN(CCCl)c1ccc(C2N(Cc3ccccc3)c3ccccc3N2Cc2ccccc2)cc1` was tested, and the T/C (dose: 6.2 mg/kg/injection, schedule: Q01DX001 (ip), vehicle: carboxymethylcellulose (CMC)) was 94 % of control and the T/C (dose: 12.5 mg/kg/injection, schedule: Q01DX001 (ip), vehicle: carboxymethylcellulose (CMC)) was 103 % of control.
In the case of `O/N=C/c1ccc(O)cc1`, the T/C (dose: 50.0 mg/kg/injection, schedule: Q01DX001 (ip), vehicle: saline) is reported as 96 % of control, the T/C (dose: 100.0 mg/kg/injection, schedule: Q01DX001 (ip), vehicle: saline) is reported as 108 % of control and the T/C (dose: 200.0 mg/kg/injection, schedule: Q01DX001 (ip), vehicle: saline) is reported as 102 % of control.
With `Cc1cc(C)nc(NS(=O)(=O)c2ccc(N=Nc3nc4[nH]c(N)nc(=S)c4[nH]3)cc2)n1` the T/C (dose: 6.25 mg/kg/injection, schedule: Q01DX009 (ip), vehicle: Klucel (hydroxypropylcellulose) (HPC)) was 151 % of control and 177 % of control, the T/C [4] was 153 % of control and the T/C [5] was 112 % of control. The T/C (dose: 200.0 mg/kg/injection, schedule: Q01DX009 (ip), vehicle: Klucel (hydroxypropylcellulose) (HPC)) was 102 % of control.
With `O=C(Nc1ccc(NC(=O)C(Cl)Cl)cc1)C(Cl)Cl` the T/C [1] was 97 % of control, the T/C [2] was 101 % of control and the T/C [3] was 90 % of control.
In the case of `CCOC(=O)C1OC12c1cccc3cccc(c13)C21OC1C(=O)OCC` (configuration not stated), the T/C [6] is reported as 92 % of control, the T/C (dose: 200.0 mg/kg/injection, schedule: Q01DX009 (ip), vehicle: saline with Tween-80) is reported as 90 % of control and the T/C (dose: 400.0 mg/kg/injection, schedule: Q01DX009 (ip), vehicle: saline with Tween-80) is reported as 98 % of control.
`C/C=C1\C(=O)O[C@@]23C=C[C@H]4C(C(=O)OC)=CO[C@@H](O[C@H]12)[C@H]43` was tested, and the T/C (dose: 5.0 mg/kg/injection, schedule: Q01DX001 (ip), vehicle: saline) was 103 % of control, the T/C [7] was 103 % of control and the T/C (dose: 20.0 mg/kg/injection, schedule: Q01DX001 (ip), vehicle: saline) was 106 % of control. For the same compound, the T/C (dose: 40.0 mg/kg/injection, schedule: Q01DX001 (ip), vehicle: saline) was 103 % of control.
For `C=CC1CC=CCC1` (configuration not stated) (tested in a mixture with another compound), the T/C (dose: 50.0 mg/kg/injection, schedule: Q01DX001 (ip), vehicle: carboxymethylcellulose (CMC)) was 98 % of control, the T/C (dose: 100.0 mg/kg/injection, schedule: Q01DX001 (ip), vehicle: carboxymethylcellulose (CMC)) was 98 % of control and the T/C (dose: 200.0 mg/kg/injection, schedule: Q01DX001 (ip), vehicle: carboxymethylcellulose (CMC)) was 98 % of control. The T/C (dose: 400.0 mg/kg/injection, schedule: Q01DX001 (ip), vehicle: carboxymethylcellulose (CMC)) was 108 % of control.
In the case of `O=C(O)C(CCC(C(=O)O)c1ccccc1)c1ccccc1` (configuration not stated), the T/C (dose: 75.0 mg/kg/injection, schedule: Q01DX001 (ip), vehicle: other) is reported as 110 % of control, the T/C (dose: 150.0 mg/kg/injection, schedule: Q01DX001 (ip), vehicle: other) is reported as 116 % of control and the T/C (dose: 300.0 mg/kg/injection, schedule: Q01DX001 (ip), vehicle: other) is reported as 95 % of control.
`Nc1nc(SCc2ccccc2)c2ncn(C3CCCO3)c2n1` (configuration not stated) was tested, and the T/C (dose: 25.0 mg/kg/injection, schedule: Q01DX Z (ip), vehicle: methylcellulose (MC)) was 101 % of control and the T/C (dose: 50.0 mg/kg/injection, schedule: Q01DX Z (ip), vehicle: methylcellulose (MC)) was 120 % of control.
For `O=C(Nc1ccc(Cl)cc1C(=O)c1ccccc1)c1ccc(Cl)cc1Cl`, the T/C (dose: 100.0 mg/kg/injection, schedule: Q04DX002 (ip), vehicle: Klucel (hydroxypropylcellulose) (HPC)) was 103 % of control and the T/C (dose: 400.0 mg/kg/injection, schedule: Q04DX002 (ip), vehicle: Klucel (hydroxypropylcellulose) (HPC)) was 89 % of control.
`CN1C(=O)C(Br)C(Br)c2ccccc21` (configuration not stated) was tested, and the T/C [8] was 107 % of control and the T/C [9] was 102 % of control.
`CN=C(NC)c1ccc(NC(=O)c2cc(Cl)cc(C(=O)Nc3ccc(C(=NC)NC)cc3)c2)cc1` was tested, and the T/C (dose: 1.88 mg/kg/injection, schedule: Q01DX Z (ip), vehicle: saline) was 88 % of control, the T/C (dose: 3.75 mg/kg/injection, schedule: Q01DX Z (ip), vehicle: saline) was 94 % of control and the T/C (dose: 7.5 mg/kg/injection, schedule: Q01DX Z (ip), vehicle: saline) was 93 % of control. For the same compound, the T/C (dose: 15.0 mg/kg/injection, schedule: Q01DX Z (ip), vehicle: saline) was 104 % of control and 115 % of control.
`Sc1ccccc1` was tested, and the T/C (dose: 100.0 mg/kg/injection, schedule: Q04DX003 (ip), vehicle: saline with Tween-80) was 92 % of control, the T/C (dose: 200.0 mg/kg/injection, schedule: Q04DX003 (ip), vehicle: saline with Tween-80) was 99 % of control and the T/C (dose: 400.0 mg/kg/injection, schedule: Q04DX003 (ip), vehicle: saline with Tween-80) was 94 % of control.
In the case of `C[N+](C)(C)CC#N`, the T/C (dose: 100.0 mg/kg/injection, schedule: Q04DX003 (ip), vehicle: saline) is reported as 95 % of control and the T/C (dose: 200.0 mg/kg/injection, schedule: Q04DX003 (ip), vehicle: saline) is reported as 95 % of control.
For `NC(Cc1ccccc1)C(=O)CCl` (configuration not stated), the T/C (dose: 25.0 mg/kg/injection, schedule: Q04DX002 (ip), vehicle: saline) was 105 % of control and the T/C (dose: 50.0 mg/kg/injection, schedule: Q04DX002 (ip), vehicle: saline) was 108 % of control.
With `CCOC(=O)c1c[nH]c2cc(OCC3CC3)c(OCC3CC3)cc2c1=O` the T/C [6] was 92 % of control.
`NNc1nc2c(N)ncnc2n1C1OC(CO)C(O)C1O` (configuration not stated) was tested, and the T/C (dose: 100.0 mg/kg/injection, schedule: Q01DX005 (ip), vehicle: saline) was 104 % of control and the T/C (dose: 200.0 mg/kg/injection, schedule: Q01DX005 (ip), vehicle: saline) was 107 % of control.
With `O=P(CCc1ccccc1)(OCCCl)OCCCl` the T/C (dose: 100.0 mg/kg/injection, schedule: Q04DX002 (ip), vehicle: saline with Tween-80) was 99 % of control, the T/C (dose: 200.0 mg/kg/injection, schedule: Q04DX002 (ip), vehicle: saline with Tween-80) was 96 % of control and the T/C (dose: 400.0 mg/kg/injection, schedule: Q04DX002 (ip), vehicle: saline with Tween-80) was 92 % of control.
`O=c1oc2ccccc2c(Cl)c1Cl` was tested, and the T/C [7] was 109 % of control.
For `CS(=O)(=O)OCCCCCCCCOS(C)(=O)=O`, the T/C (dose: 3.0 mg/kg/injection, schedule: Q01DX009 (ip), vehicle: Klucel (hydroxypropylcellulose) (HPC)) was 100 % of control, the T/C (dose: 5.0 mg/kg/injection, schedule: Q01DX009 (ip), vehicle: Klucel (hydroxypropylcellulose) (HPC)) was 102 % of control and the T/C (dose: 11.0 mg/kg/injection, schedule: Q01DX009 (ip), vehicle: Klucel (hydroxypropylcellulose) (HPC)) was 118 % of control. The T/C [4] was 108 % of control, the T/C [5] was 114 % of control and the T/C (dose: 25.0 mg/kg/injection, schedule: Q04DX003 (ip), vehicle: Klucel (hydroxypropylcellulose) (HPC)) was 112 % of control. The T/C (dose: 37.5 mg/kg/injection, schedule: Q01DX009 (ip), vehicle: Klucel (hydroxypropylcellulose) (HPC)) was 163 % of control, the T/C (dose: 50.0 mg/kg/injection, schedule: Q01DX009 (ip), vehicle: Klucel (hydroxypropylcellulose) (HPC)) was 93 % of control and the T/C [10] was 116 % of control. For the same compound, the T/C [1] was 116 % of control.
For `COC(=O)c1cccc([N+](=O)[O-])c1Br`, the T/C (dose: 50.0 mg/kg/injection, schedule: Q01DX001 (ip), vehicle: other) was 102 % of control, the T/C [8] was 96 % of control and the T/C [9] was 102 % of control. The T/C (dose: 400.0 mg/kg/injection, schedule: Q01DX001 (ip), vehicle: other) was 100 % of control.
For `CS(=O)(=O)OC1C(OCc2ccccc2)OC(COCc2ccccc2)C(OC2OC(COCc3ccccc3)C(OCc3ccccc3)C(OCc3ccccc3)C2OCc2ccccc2)C1OCc1ccccc1` (configuration not stated), the T/C [10] was 93 % of control, the T/C [1] was 93 % of control and the T/C [2] was 97 % of control. The T/C [3] was 93 % of control.
`COC(=O)CC[S+](C)CCC(=O)OC` was tested, and the T/C (dose: 7.5 mg/kg/injection, schedule: Q04DX003 (ip), vehicle: saline) was 100 % of control, the T/C (dose: 15.0 mg/kg/injection, schedule: Q04DX003 (ip), vehicle: saline) was 107 % of control and the T/C (dose: 30.0 mg/kg/injection, schedule: Q04DX003 (ip), vehicle: saline) was 105 % of control.
